What is called IC50 is the concentration needed to halve the response being measured. The GI50 is the concentration at which growth is held to half of that of the control.

Data set [1] relates to FBXW5 (mature mRNA transcript). Nature of the data set: In vivo PD RT-qPCR in NCI-N87 tumors, FBXW5. Set-up: species or system CB17-SCID mice. Particulars: single IV 10 mg/kg; N=4; FIG. 24.
The subject of data set [2] is TAOK1 (neojunction transcript). As to the kind of experiment: In vivo PD RT-qPCR in NCI-N87 tumors, TAOK1. Set-up: species or system CB17-SCID mice. Particulars: single IV 10 mg/kg; N=4; FIG. 24.
The test system of another data set is Ad2.1 pre-mRNA. Nature of the data set: In vitro splicing (IVS) RT-qPCR, HeLa nuclear extract, Ad2.1. It counts as biochemical. As to the method: (§1) To evaluate payload activity in a cell-free system, an in vitro splicing assay was performed. The payloads were incubated with nuclear extracts and pre-mRNA substrate minigenes.
(§2) HeLa nuclear extract preparation: HeLa S3 cell pellets were resuspended in hypotonic buffer (10 mM HEPES pH 7.9, 1.5 mM MgCl2, 10 mM KCl, 0.2 mM PMSF, 0.5 mM DTT) and the suspension was brought up to a total of 5 packed cell volume (PCV). After centrifugation, the supernatant was discarded, and the cells were brought up to 3 PCV with hypotonic buffer and incubated on ice for 10 min. Cells were lysed using a dounce homogenizer and then centrifuged. […]. The nuclei were gently mixed for 30 min before centrifuging. The supernatant (nuclear extract) was then dialyzed into storage buffer (20 mM HEPES pH 7.9, 100 mM KCl, 0.2 mM EDTA, 20% glycerol, 0.2 mM PMSF, 0.5 mM DTT). Protein concentration was determined using NanoDrop 8000 UV-Vis spectrophotometer (ThermoFisher Scientific).
IVS: All Ad2-derived sequences (Pellizzoni et al. (1998) Cell 95(5):615-24) were cloned into pcDNA3.1(+) vector (Promega) using 5′ EcoRI and 3′ Xbal restriction sites. The plasmids were linearized using Xbal and used as DNA templates in in vitro transcription reactions. The FtzΔi intron-less plasmid (Luo and Reed (1999) 96(26):14937-42) was linearized using EcoRI. All RNAs were in vitro transcribed and then purified using MEGAScript T7 (Invitrogen) and MegaClear (Invitrogen) kits, respectively. For splicing reactions using Ad2 variant pre-mRNAs, 1 μL reactions were prepared using 8 μg nuclear extracts prepared from HeLa S3, 2 ng pre-mRNA, 0.2 ng FTZΔi, and varying concentrations of compounds or DMSO. After a 15 min pre-incubation at 30° C., 1 μL splicing activation buffer (0.5 mM ATP, 20 mM creatine phosphate, 1.6 mM MgCl2) was added, and the reactions were incubated for 90 min at 30° C. The reactions were then quenched with 13 μL DMSO, and 25 nL was used for RT-qPCR. […]

The next data set has as its system NCIH1650.1. Nature of the data set: Payload cellular potency CTGlo-ATS 72 h, NCIH1650.1. It counts as cell-based. The settings on record: cell line #1, 72 h, corresponding free payload.
Data set [3] is described as follows: Caco-2 permeability of ADC payload. It counts as in vitro ADME. The settings on record: human, corresponding free payload.
The next data set concerns THP1.1. As to the kind of experiment: Payload cell potency and lethality CTGlo 72 h, THP1.1. The settings on record: cell line #3, 72 h, corresponding free payload. It counts as cell-based.
A further data set deals with NCIH1568.1. As to the kind of experiment: Payload cellular potency CTGlo-ATS 72 h, NCIH1568.1. Type of data set: cell-based. The settings on record: cell line #2, 72 h, corresponding free payload.
In a further data set the test system is Ad2.2 pre-mRNA. As to the kind of experiment: In vitro splicing (IVS) RT-qPCR, HeLa nuclear extract, Ad2.2. Type of data set: biochemical. On the procedure: as §1, §2
IVS: All Ad2-derived sequences (Pellizzoni et al. (1998) Cell 95(5):615-24) were cloned into pcDNA3.1(+) vector (Promega) using 5′ EcoRI and 3′ Xbal restriction sites. The plasmids were linearized using Xbal and used as DNA templates in in vitro transcription reactions. The FtzΔi intron-less plasmid (Luo and Reed (1999) 96(26):14937-42) was linearized using EcoRI. All RNAs were in vitro transcribed and then purified using MEGAScript T7 (Invitrogen) and MegaClear (Invitrogen) kits, respectively. For splicing reactions using Ad2 variant pre-mRNAs, 1 μL reactions were prepared using 8 μg nuclear extracts prepared from HeLa S3, 2 ng pre-mRNA, 0.2 ng FTZΔi, and varying concentrations of compounds or DMSO. After a 15 min pre-incubation at 30° C., 1 μL splicing activation buffer (0.5 mM ATP, 20 mM creatine phosphate, 1.6 mM MgCl2) was added, and the reactions were incubated for 90 min at 30° C. The reactions were then quenched with 13 μL DMSO, and 25 nL was used for RT-qPCR. RT-qPCR reactions were prepared using TaqMan RNA-to-CT 1-step kit (Life Technologies), RNA from splicing reactions, Ad2 (forward: […]; reverse: […]; probe: […]) and Ftz (forward: […]; reverse: […]; probe: […]) mRNA primer-probe sets. Prism 7 (Graphpad) was used for non-linear regression curve fitting of the formed spliced product and normalized to the control (DMSO) sample. […] In the presence of payload, a decrease in the amount of spliced product was observed.

The subject of another data set is Caco-2 cells. As to the kind of experiment: Caco-2 permeability of ADC payload. The settings on record: unconjugated payload; apical to basolateral, 2 hours. It counts as in vitro ADME.

Each structure is given as a SMILES string. Where two headings read alike, the source gives them in different places.

For `CC(=O)N1CCC(n2nnc3c(F)cc(/C=C(\C)[C@H]4OC(=O)C[C@H](O)CC[C@H](C)[C@@H](OC(=O)N5CC[N+](C)(Cc6ccc(NC(=O)[C@H](C)NC(=O)[C@@H](NC(=O)CCCCCN7C(=O)C=CC7=O)C(C)C)cc6)CC5)/C=C/[C@@H]4C)cc32)CC1` [ADL5-D15, 4-((((2S,3S,6R,7S,10R,E)-2-((E)-1-(1-(1-acetylpiperidin-4-yl)-4-fluoro-1H-benzo[d][1,2,3]triazol-6-yl)prop-1-en-2-yl)-10-hydroxy-3,7-dimethyl-12-oxooxacyclododec-4-en-6-yl)oxy)carbonyl)-1-(4-((S)-2-((S)-2-(6-(2,5-dioxo-2,5-dihydro-1H-pyrrol-1-yl)hexanamido)-3-methylbutanamido)propanamido)benzyl)-1-methylpiperazin-1-ium], in data set [1], the “change of FBXW5 mature mRNA transcript in tumor” value was “significant depletion”. In addition, the “change of TAOK1 neojunction transcript in tumor” value in data set [2] is “an increase in TAOK1, but did not reach statistical significance”.
As to `CC[C@H](O)[C@@H](C)[C@H]1O[C@@H]1C[C@@](C)(O)/C=C/C=C(\C)[C@H]1OC(=O)C[C@H](O)CC[C@@](C)(O)[C@@H](OC(=O)N2CCNCC2)/C=C/[C@@H]1C` [D12, (2S,3S,6S,7R,10R,E)-7,10-dihydroxy-2-((R,2E,4E)-6-hydroxy-7-((2R,3R)-3-((2R,3S)-3-hydroxypentan-2-yl)oxiran-2-yl)-6-methylhepta-2,4-dien-2-yl)-3,7-dimethyl-12-oxooxacyclododec-4-en-6-yl piperazine-1-carboxylate], the IC50 worked out at 16.5 nM with Ad2.1 pre-mRNA (biochemical splicing assay, corresponding free payload, read-out: qPCR-IVS-ATS GMean IC50 (nM) Ad2.1 HELA.2) and 25.1 nM in the data set with Ad2.2 pre-mRNA (biochemical splicing assay, corresponding free payload, read-out: qPCR-IVS-ATS GMean IC50 (nM) Ad2.2 HELA.2). Besides, in the data set with Ad2.1 pre-mRNA (ratio of IVS IC50 Ad2.1/Ad2.2, corresponding free payload), the “Ratio Ad2.1/2.2” value came to 0.659. In the data set on NCIH1650.1, the “CTGlo-ATS GMean LD50 (nM) 72 h NCIH1650.1” value was above 10000.00 nM. Also, the figures for the GI50 in the data set on NCIH1650.1 (read-out: CTGlo-ATS GMean GI50 (nM) 72 h NCIH1650.1), with THP1.1 (read-out: CTGlo-ATS GMean GI50 (nM) 72 h THP1.1) and in the data set on NCIH1568.1 (read-out: CTGlo-ATS GMean GI50 (nM) 72 h NCIH1568.1) were 258 nM, 202 nM and 164 nM, respectively. In addition, the Papp A→B at 2 h, 10 NM in data set [3] (Caco-2, A-B, read-out: Perm. Mean Caco 2 A-B Perm (10e−6 cm/s)) stood at 0.17 ×10⁻⁶ cm/s. Moreover, the Papp B→A at 2 h, 10 NM in [3] (Caco-2, B-A, read-out: Perm. Mean Caco 2 B-A Perm (10e−6 cm/s)) was 0.23 ×10⁻⁶ cm/s. In addition, the efflux ratio at 2 h, 10 NM in data set [3] (Caco-2 efflux ratio, read-out: ER) was 1.35. In the data set with THP1.1, the “CTGlo-ATS GMean LD50 (nM) 72 h THP1.1” value was 900.227 nM. Further, the “CTGlo-ATS GMean LD50 (nM) 72 h NCIH1568.1” value with NCIH1568.1 was 1193.037 nM.
For `COc1cc2cc(c1Cl)N(C)C(=O)C[C@H](OC(=O)[C@H](C)N(C)C(=O)CCS)[C@]1(C)O[C@H]1[C@H](C)[C@@H]1C[C@@](O)(NC(=O)O1)[C@H](OC)/C=C/C=C(\C)C2` [DM1, reference compound], the IC50 in the data set with Ad2.1 pre-mRNA (unconjugated payload, HeLa nuclear extract, read-out: qPCR-IVS-AT S Gmean IC50 (nm) Ad2.1 HELA.2) was above 25000 nM; with Ad2.2 pre-mRNA (unconjugated payload, HeLa nuclear extract, read-out: qPCR-IVS-AT S GMean IC50 (nM) Ad2.2 HELA.2), below 25000 nM. Besides, the “Permeability Mean Caco-2 A-B Perm (10e−6 cm/s)” value with Caco-2 cells is listed as 0.38 10e−6 cm/s.

For the origin of these results see patent publication US11945807B2, “Splicing modulator antibody-drug conjugates and methods of use” (EISAI R&D MANAGEMENT CO., LTD., priority 2018, dated 2024).
